Source: US12421253B2 (Mirati Therapeutics, Inc., priority 2020, dated 2025)

Tests used:
[1] = system: H460 cells, pERK; experiment: Inhibition of KRas phosphorylation of ERK (Cisbio HTRF Advanced pERK assay); format: cell-based; details: Homo sapiens, NCI-H460, 3 hrs, read-out: Inhibition (HTRF IC50 nM) of KRas-mediated Phosphorylation of ERK, H460
In short: (§1)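 Cells were seeded overnight in RPMI with 10% FBS, then treated for 3 h at 37 °C with 10-dose, 3-fold compound titrations from 10 uM (0.8% DMSO final). After lysis at 4 °C, phospho-ERK was quantified by HTRF using d2- and cryptate-labelled antibodies; 0.2 uM trametinib served as minimum control.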

[2] = system: A549 cells, pERK; experiment: as above; format: cell-based; details: Homo sapiens, 3 hrs, read-out: Inhibition (HTRF IC50 nM) of KRas-mediated Phosphorylation of ERK, A549
In short: as §1

[3] = system: ASPC1 cells, pERK; experiment: as above; format: cell-based; details: Homo sapiens, ASPC1, 3 h, AsPC-1 cells, read-out: Inhibition (HTRF IC50 nM) of KRas-mediated Phosphorylation of ERK, AsPC-1
In short: as §1

[4] = system: HCT116 cells, pERK; experiment: as above; format: cell-based; details: Homo sapiens, HCT-116, 3 hrs, read-out: Inhibition (HTRF IC50 nM) of KRas-mediated Phosphorylation of ERK, HCT116
In short: as §1

[5] = system: PSN1 cells, pERK; experiment: as above; format: cell-based; details: Homo sapiens, PSN1, 3 h, read-out: Inhibition (HTRF IC50 nM) of KRas-mediated Phosphorylation of ERK, PSN1
In short: as §1

[6] = system: H727 cells, pERK; experiment: as above; format: cell-based; details: Homo sapiens, NCI-H727, 3 h, read-out: Inhibition (HTRF IC50 nM) of KRas-mediated Phosphorylation of ERK, H727
In short: as §1

[7] = system: MKN1 cells, pERK; experiment: as above; format: cell-based; details: Homo sapiens, MKN-1, 3 h, read-out: Inhibition (HTRF IC50 nM) of KRas-mediated Phosphorylation of ERK, MKN1
In short: as §1

[8] = biological target: T1, KRas^G12D (Homo sapiens, UniProt P01116, G12D); experiment: KRas binding assay (TR-FRET displacement of Cy5 labelled tracer)
T1 construct: […]; biotin (biotinylated); purchased Accelegan Inc
T1 sequence (P01116 1-169 isoform P01116-2 G12D): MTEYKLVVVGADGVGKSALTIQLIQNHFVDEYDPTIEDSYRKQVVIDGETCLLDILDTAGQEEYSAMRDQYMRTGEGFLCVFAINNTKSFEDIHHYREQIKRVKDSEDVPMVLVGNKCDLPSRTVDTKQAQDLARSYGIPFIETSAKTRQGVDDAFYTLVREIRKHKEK

[9] = biological target: T2, KRas^G12V (Homo sapiens, UniProt P01116, G12V); experiment: as above
T2 construct: […]; biotin (biotinylated); purchased Accelegan Inc
T2 sequence (P01116 1-169 isoform P01116-2 G12V): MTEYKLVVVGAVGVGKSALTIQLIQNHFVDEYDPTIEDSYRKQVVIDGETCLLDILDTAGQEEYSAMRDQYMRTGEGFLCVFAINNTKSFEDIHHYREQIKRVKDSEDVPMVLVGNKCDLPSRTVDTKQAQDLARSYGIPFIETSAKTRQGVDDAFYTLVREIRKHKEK

[10] = biological target: T3, KRas^G12R (Homo sapiens, UniProt P01116, G12R); experiment: as above
T3 construct: […]; biotin (biotinylated); purchased Accelegan Inc
T3 sequence (P01116 1-169 isoform P01116-2 G12R): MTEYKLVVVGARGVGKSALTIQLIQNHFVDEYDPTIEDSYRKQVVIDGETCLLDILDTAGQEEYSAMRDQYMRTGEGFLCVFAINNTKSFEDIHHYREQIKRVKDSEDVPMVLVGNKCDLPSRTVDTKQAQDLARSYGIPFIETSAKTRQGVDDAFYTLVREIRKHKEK

| Compound | IC50 [1] [nM] | IC50 [2] [nM] | IC50 [3] [nM] | IC50 [4] [nM] | IC50 [5] [nM] | IC50 [6] [nM] | IC50 [7] [nM] | IC50 [8] [nM] | IC50 [9] [nM] | IC50 [10] [nM] |
| --- | --- | --- | --- | --- | --- | --- | --- | --- | --- | --- |
| CN(C)C(=O)c1cc2n(n1)CCCN(c1nc(OC[C@@]34CCCN3C[C@H](F)C4)nc3c1CCN(c1cc(O)cc4ccc(F)c(Cl)c14)C3)C2 [Example 229, 5-(7-(8-chloro-7-fluoro-3-hydroxynaphthalen-1-yl)-2-(((2R,7aS)-2-fluorohexahydro-1H-pyrrolizin-7a-yl)methoxy)-5,6,7,8-tetrahydropyrido[3,4-d]pyrimidin-4-yl)-N,N-dimethyl-5,6,7,8-tetrahydro-4H-pyrazolo[1,5-a][1,4]diazepine-2-carboxamide] | 1400 | 705 | 220 | 1980 | 2140 | 260 | 317 | ≤ 2 | ≤ 2 | ≤ 2 |
| O=C1NC(=O)C2CN(c3nc(OC[C@@]45CCCN4C[C@H](F)C5)nc4c3CCN(c3cc(O)cc5ccc(F)c(Cl)c35)C4)CC12 (stereo partly drawn) [Example 232, 5-(7-(8-chloro-7-fluoro-3-hydroxynaphthalen-1-yl)-2-(((2R,7aS)-2-fluorohexahydro-1H-pyrrolizin-7a-yl)methoxy)-5,6,7,8-tetrahydropyrido[3,4-d]pyrimidin-4-yl)tetrahydropyrrolo[3,4-c]pyrrole-1,3(2H,3aH)-dione] | 331 | 98 | 125 | 709 | 2770 | 114 | 34 | ≤ 2 | ≤ 2 | ≤ 2 |

Further molecules by falling IC50 [1], results first:

| IC50 [1] [nM] | IC50 [2] [nM] | IC50 [3] [nM] | IC50 [4] [nM] | IC50 [5] [nM] | IC50 [6] [nM] | IC50 [7] [nM] | IC50 [8] [nM] | IC50 [9] [nM] | IC50 [10] [nM] | Compound |
| --- | --- | --- | --- | --- | --- | --- | --- | --- | --- | --- |
| 1240 | 671 | 185 | 1950 | ≥ 10000 | 344 | 185 | ≤ 2 | ≤ 2 | 5 | CCc1c(F)ccc2cc(O)cc(N3CCc4c(nc(OC[C@@H]5CCCN5C)nc4N4CCCn5nc(C(=O)N(C)C)cc5C4)C3)c12 [Example 198, 5-[7-(8-ethyl-7-fluoro-3-hydroxy-1-naphthyl)-2-[[(2S)-1-methylpyrrolidin-2-yl]methoxy]-6,8-dihydro-5H-pyrido[3,4-d]pyrimidin-4-yl]-N,N-dimethyl-4,6,7,8-tetrahydropyrazolo[1,5-a][1,4]diazepine-2-carboxamide] |
| 132 | 160 | 234 | 227 | 269 | 390 | 21 | ≤ 2 | ≤ 2 | ≤ 2 | O=C1NC(=O)C2(CCCN(c3nc(OC[C@@]45CCCN4C[C@H](F)C5)nc4c3CCN(c3cc(O)cc5ccc(F)c(Br)c35)C4)C2)N1 (stereo partly drawn) [Example 217, 7-(7-(8-bromo-7-fluoro-3-hydroxynaphthalen-1-yl)-2-(((2R,7aS)-2-fluorohexahydro-1H-pyrrolizin-7a-yl)methoxy)-5,6,7,8-tetrahydropyrido[3,4-d]pyrimidin-4-yl)-1,3,7-triazaspiro[4.5]decane-2,4-dione] |
| 68 | 59 | 122 | 164 | 578 | 194 | 41 | ≤ 2 | 52 | ≤ 2 | O=C1NC(=O)C2(CCCN(c3nc(OC[C@@]45CCCN4C[C@H](F)C5)nc4c3CCN(c3cc(O)cc5ccc(F)c(Cl)c35)C4)C2)N1 (stereo partly drawn) [Example 69, 7-(7-(8-chloro-7-fluoro-3-hydroxynaphthalen-1-yl)-2-(((2R,7aS)-2-fluorohexahydro-1H-pyrrolizin-7a-yl)methoxy)-5,6,7,8-tetrahydropyrido[3,4-d]pyrimidin-4-yl)-1,3,7-triazaspiro[4.5]decane-2,4-dione] |
